Assay results as given in EP3382005A2, “EX VIVO MODEL FOR NEURODEGENERATIVE DISEASES” (Neuro-Bio Ltd, priority 2017, dated 2018).
Square brackets hold non-standard residues; d marks the D form. Peptide text beside a SMILES is read from it. Phe(4-COOH) = N[C@@H](Cc1ccc(C(=O)O)cc1)C(=O)O; 2Nal = N[C@@H](Cc1ccc2ccccc2c1)C(=O)O; cisHyp = O=C(O)[C@@H]1C[C@H](O)CN1

Assays:
[1] = target: T1, alpha7 nicotinic receptor (Rattus norvegicus, UniProt Q05941); test: Calcium influx test in PC12 cells; type: cell-based; conditions: compound alone, higher doses 1 µM to 10 µM
T1 construct: endogenous in cells; host or cells: PC12 cells

PC12 cells = test: Cell viability test

T1 sequence (Q05941 23-502): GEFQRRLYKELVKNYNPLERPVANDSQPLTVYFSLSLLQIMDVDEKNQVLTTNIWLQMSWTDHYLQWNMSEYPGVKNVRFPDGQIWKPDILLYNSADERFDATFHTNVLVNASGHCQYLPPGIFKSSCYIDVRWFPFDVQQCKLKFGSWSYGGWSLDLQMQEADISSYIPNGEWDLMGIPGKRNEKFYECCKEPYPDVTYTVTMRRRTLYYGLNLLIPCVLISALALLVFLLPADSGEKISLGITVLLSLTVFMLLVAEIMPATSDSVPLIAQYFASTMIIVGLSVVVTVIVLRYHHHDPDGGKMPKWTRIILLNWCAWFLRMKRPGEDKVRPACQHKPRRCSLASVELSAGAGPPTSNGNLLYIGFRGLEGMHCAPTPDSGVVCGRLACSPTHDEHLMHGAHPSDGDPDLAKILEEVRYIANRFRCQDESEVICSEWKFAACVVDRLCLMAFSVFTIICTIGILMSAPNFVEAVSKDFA

With CC(=O)N[C@@H](Cc1ccc2ccccc2c1)C(=O)N[C@@H](Cc1ccc(C(=O)O)cc1)C(=O)N1C[C@@H](O)C[C@H]1C(N)=O [Tri01, 4-((S)-2-((S)-2-acetamido-3-(naphthalen-2-yl)propanamido)-3-((2S,4S)-2-carbamoyl-4-hydroxypyrrolidin-1-yl)-3-oxopropyl)benzoate] (Ac-[2Nal]-[Phe(4-COOH)]-[cisHyp]-NH2) the “calcium influx by the specific alpha7 agonist PNU282987” value [1] was “inactive”, the PC12 cell viability (PC12 cells; compound alone, 0.1µM to 10µM) was “toxic in a concentration-dependent manner” and the PC12 cell viability (PC12 cells; in the presence of T30 1µM) was “potentiates the toxicity induced by T30”.
